From US11020399B2, “Intermediates useful in the synthesis of compounds as modulators of protein kinases” (Rhizen Pharmaceuticals SA, priority 2011, dated 2021) come the findings set out here.

Common to all, as to assay type: biochemical
One assay deals with PI3kγ (Homo sapiens, UniProt P48736). Put plainly: Fluorescent (HTRF) determination of PI3 kinase enzyme activity, PI3Kγ. The following applies: for inhibition at 0.1 µM / % inhibition (PI3kγ) 100 nM: 100 nM (Examples 60-137); for % inhibition (PI3kγ) 100 nM: 0.1 µM; for inhibition at 0.3 µM: 300 nM (Examples 1-59). From the text:
(§1) Assay 1: Fluorescent Determination of PI3Kinase Kinase Enzyme Activity
(§2) Phosphoinositide 3 kinases (PI3K) belong to a class of lipid kinases that play a critical role in the regulation of several key cellular processes. The PI3K are capable of phosphorylating the 3-hydroxy position of phosphoinositols thereby generating second messengers involved in downstream signalling events. The homogenous time resolved fluorescence (HTRF) assay allows detection of 3,4,5-triphosphate (PIP3) formed as a result of phosphorylation of phosphotidylinositol 4,5-biphosphate (PIP2) by PI3K isoforms such as α, β, γ or δ. PI3K isoform activity for a, p, y or 8 was determined using a PI3K human HTRF™ Assay Kit (Millipore, Billerica, Mass.) with modifications. All incubations were carried out at room temperature. Briefly, 0.5 μl of 40× inhibitor (in 100% DMSO) or 100% DMSO were added to each well of a 384-well black plate (Greiner Bio-One, Monroe, N.C.) containing 14.5 μl IX reaction buffer /PIP2 (10 mM MgCl2, 5 mM DTT, 1.38 μM PIP2) mix with or without enzyme and incubated for 10 min. After the initial incubation, 5 μl/well of 400 μM ATP was added and incubated for an additional 30 minutes. Reaction was terminated by adding 5 μl/well stop solution (Millipore, Billerica, Mass.). Five microliters of detection mix (Millipore, Billerica, Mass.) were then added to each well and was incubated for 6-18 h in the dark. HRTF ratio was measured on a microplate reader (BMG Labtech., Germany) at an excitation wavelength of 337 nm and emission wavelengths of 665 and 620 nm with an integration time of 400 μsec.
(§3) Data were analyzed using Graphpad Prism (Graphpad software; San Diego Calif.) for IC50 determination. Examples 1-59 were tested at 1 uM for Pi3kα & Pi3k β and at 0.3 uM for γ and δ. Examples 60-137 were tested at 1 uM for Pi3kα & Pi3k β and at 0.1 uM for γ and δ. Percent inhibition was calculated based on the values for the blank and enzyme controls. The results are as provided in Table 2 (wherein D=0 to 25%; C=>25 to 50%; B=>50 to 75%; A=>75 to 100%; +++++=≤50 nM; ++++=>50 to ≤100 nM; +++=>100 to ≤300 nM; ++=>300 to ≤500 nM; +=>500 nM)

In another assay the target is PI3kδ (Homo sapiens, UniProt O00329). Put plainly: Fluorescent (HTRF) determination of PI3 kinase enzyme activity, PI3Kδ. The following applies: for inhibition at 0.1 µM / % inhibition (PI3kδ) 100 nM: 100 nM (Examples 60-137); for inhibition at 0.3 µM: 300 nM (Examples 1-59).
Chain of PI3kδ (O00329 whole entry): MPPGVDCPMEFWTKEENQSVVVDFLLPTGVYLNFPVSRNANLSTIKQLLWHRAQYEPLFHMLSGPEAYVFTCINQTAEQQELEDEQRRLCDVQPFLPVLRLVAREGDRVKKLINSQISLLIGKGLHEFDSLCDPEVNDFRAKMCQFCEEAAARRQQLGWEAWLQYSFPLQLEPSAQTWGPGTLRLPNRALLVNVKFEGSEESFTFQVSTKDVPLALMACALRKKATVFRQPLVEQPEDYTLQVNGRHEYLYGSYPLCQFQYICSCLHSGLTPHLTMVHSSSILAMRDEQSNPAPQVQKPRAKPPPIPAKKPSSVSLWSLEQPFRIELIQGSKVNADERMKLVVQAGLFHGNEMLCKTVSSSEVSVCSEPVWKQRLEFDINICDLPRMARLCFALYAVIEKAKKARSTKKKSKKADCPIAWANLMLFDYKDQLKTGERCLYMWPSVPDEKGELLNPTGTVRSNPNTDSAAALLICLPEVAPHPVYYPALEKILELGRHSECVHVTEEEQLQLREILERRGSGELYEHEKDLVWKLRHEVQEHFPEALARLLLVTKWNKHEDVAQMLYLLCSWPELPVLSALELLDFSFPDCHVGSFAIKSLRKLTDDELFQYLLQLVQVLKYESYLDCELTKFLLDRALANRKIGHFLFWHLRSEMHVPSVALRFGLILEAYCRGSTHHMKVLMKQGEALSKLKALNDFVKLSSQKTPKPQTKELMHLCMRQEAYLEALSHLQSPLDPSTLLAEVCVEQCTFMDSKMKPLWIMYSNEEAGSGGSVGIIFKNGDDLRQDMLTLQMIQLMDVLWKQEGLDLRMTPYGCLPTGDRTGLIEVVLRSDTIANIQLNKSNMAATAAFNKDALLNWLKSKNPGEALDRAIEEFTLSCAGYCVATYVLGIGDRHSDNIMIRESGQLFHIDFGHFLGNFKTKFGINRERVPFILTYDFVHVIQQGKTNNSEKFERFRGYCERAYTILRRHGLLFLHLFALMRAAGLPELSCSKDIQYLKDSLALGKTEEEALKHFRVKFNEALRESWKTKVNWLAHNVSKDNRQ
Chain of PI3kδ (P27986 whole entry partner): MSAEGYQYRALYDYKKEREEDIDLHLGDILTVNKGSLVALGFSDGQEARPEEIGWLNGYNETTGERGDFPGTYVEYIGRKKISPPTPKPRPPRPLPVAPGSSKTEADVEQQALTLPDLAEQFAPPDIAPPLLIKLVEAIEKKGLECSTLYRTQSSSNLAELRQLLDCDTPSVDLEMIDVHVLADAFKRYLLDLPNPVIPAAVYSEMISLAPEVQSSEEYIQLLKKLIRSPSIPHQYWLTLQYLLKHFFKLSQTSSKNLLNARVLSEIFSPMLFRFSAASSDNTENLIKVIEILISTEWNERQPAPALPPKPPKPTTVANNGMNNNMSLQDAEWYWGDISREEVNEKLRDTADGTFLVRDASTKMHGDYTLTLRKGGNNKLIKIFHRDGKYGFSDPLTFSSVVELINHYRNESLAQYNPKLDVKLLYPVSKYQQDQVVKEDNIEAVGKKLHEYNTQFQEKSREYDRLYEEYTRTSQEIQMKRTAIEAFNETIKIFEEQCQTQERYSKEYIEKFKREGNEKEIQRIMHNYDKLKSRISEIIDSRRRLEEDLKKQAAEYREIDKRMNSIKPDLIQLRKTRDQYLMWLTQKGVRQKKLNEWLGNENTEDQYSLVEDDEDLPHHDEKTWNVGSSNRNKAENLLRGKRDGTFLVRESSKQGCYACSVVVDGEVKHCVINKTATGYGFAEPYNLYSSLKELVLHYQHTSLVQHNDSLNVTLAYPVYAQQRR
From the text: as §1, §2, §3
In general terms: In TR-FRET formats the signal depends on donor and acceptor labels being close together.

The next assay addresses PI3kβ (Homo sapiens, UniProt P42338). The assay is described as follows: Fluorescent (HTRF) determination of PI3 kinase enzyme activity, PI3Kβ.
From the text: as §1, §2, §3

A further assay deals with PI3kα (Homo sapiens, UniProt P42336). Put plainly: Fluorescent (HTRF) determination of PI3 kinase enzyme activity, PI3Kα.
Chain of PI3kα (P42336 whole entry): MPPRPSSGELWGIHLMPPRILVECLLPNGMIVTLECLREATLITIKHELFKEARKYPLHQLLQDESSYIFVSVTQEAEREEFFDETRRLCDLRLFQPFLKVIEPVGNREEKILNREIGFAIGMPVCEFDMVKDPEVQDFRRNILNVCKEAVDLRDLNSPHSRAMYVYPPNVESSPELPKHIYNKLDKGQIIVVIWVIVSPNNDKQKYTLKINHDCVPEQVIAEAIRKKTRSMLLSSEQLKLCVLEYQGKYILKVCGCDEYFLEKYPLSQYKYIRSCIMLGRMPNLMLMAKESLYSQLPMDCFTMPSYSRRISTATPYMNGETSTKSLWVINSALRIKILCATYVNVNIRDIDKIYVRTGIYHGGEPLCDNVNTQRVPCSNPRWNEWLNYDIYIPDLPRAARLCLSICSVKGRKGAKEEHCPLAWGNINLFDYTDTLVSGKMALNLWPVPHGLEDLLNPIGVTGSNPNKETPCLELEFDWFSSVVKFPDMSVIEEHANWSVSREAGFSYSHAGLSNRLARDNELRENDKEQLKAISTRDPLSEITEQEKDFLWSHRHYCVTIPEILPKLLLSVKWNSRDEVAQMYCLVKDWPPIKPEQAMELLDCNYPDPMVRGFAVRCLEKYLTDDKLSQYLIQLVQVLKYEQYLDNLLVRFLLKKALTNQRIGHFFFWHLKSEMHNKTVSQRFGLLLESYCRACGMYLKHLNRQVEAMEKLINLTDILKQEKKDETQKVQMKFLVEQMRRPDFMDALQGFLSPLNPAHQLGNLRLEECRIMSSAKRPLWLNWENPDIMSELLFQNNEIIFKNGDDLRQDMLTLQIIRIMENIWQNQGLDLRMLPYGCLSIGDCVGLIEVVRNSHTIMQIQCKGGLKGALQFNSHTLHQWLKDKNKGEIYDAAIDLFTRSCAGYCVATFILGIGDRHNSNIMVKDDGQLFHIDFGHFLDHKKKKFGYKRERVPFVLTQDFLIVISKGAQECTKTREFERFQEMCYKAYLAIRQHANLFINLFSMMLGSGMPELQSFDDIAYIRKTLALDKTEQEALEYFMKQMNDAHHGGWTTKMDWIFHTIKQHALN
Chain of PI3kα (P27986 whole entry partner): as the sequence (P27986 whole entry partner) above
From the text: as §1, §2, §3

Chain of PI3kβ (P42338 whole entry): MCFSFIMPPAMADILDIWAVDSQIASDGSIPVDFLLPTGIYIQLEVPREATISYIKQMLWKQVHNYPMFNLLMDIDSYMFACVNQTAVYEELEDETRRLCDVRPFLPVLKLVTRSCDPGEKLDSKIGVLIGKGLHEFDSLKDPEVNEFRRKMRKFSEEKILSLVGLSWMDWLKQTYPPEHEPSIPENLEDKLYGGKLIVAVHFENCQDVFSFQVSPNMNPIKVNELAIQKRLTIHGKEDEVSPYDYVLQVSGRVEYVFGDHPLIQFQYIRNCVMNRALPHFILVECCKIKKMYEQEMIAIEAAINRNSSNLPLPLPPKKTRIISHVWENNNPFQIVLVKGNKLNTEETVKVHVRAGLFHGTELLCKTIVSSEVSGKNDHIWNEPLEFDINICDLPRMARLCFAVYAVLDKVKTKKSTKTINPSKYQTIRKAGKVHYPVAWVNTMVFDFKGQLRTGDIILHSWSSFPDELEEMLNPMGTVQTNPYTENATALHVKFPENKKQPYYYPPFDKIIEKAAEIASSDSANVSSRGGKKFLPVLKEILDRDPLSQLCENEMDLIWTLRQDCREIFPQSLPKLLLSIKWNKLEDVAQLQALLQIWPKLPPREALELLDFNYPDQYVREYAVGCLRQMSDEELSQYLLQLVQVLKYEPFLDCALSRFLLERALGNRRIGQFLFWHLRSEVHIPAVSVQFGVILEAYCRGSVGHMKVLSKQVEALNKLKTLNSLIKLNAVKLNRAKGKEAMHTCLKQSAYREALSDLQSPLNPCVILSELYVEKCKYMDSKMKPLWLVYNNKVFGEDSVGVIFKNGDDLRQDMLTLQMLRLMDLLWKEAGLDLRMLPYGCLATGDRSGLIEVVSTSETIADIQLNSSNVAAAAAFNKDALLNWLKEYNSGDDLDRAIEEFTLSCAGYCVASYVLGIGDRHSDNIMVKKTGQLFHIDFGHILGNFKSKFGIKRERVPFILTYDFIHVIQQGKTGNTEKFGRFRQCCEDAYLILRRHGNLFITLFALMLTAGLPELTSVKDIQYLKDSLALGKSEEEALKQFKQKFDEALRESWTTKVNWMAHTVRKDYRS
Chain of PI3kβ (P27986 whole entry partner): as the sequence (P27986 whole entry partner) above
Chain of PI3kγ (P48736 whole entry): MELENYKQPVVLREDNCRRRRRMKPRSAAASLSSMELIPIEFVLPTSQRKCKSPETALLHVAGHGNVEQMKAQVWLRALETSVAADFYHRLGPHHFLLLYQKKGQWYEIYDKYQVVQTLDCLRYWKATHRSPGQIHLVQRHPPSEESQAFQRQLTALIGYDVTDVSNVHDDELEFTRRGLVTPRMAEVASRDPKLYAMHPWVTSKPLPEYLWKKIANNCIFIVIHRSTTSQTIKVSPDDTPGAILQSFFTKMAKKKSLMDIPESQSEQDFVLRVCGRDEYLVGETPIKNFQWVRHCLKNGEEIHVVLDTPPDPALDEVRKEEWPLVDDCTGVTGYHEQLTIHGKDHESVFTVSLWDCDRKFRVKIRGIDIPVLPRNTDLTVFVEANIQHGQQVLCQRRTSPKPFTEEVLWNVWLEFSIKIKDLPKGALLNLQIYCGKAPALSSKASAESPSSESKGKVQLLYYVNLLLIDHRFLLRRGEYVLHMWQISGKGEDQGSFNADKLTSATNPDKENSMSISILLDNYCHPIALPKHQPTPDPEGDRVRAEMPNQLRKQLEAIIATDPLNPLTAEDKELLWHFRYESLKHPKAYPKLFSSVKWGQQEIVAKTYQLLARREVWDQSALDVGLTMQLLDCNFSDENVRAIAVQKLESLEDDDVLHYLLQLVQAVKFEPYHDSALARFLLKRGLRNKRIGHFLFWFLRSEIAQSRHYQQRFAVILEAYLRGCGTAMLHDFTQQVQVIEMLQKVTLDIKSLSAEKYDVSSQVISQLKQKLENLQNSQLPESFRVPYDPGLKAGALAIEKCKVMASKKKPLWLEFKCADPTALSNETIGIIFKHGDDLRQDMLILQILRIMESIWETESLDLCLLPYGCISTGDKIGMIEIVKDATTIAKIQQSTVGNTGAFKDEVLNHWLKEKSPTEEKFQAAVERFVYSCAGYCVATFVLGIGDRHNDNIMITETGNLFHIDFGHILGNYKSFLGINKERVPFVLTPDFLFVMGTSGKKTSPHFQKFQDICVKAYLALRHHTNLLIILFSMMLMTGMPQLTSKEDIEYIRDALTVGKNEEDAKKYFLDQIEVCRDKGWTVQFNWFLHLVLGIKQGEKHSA

As for `CC(c1oc2cccc(F)c2c(=O)c1-c1ccccc1)n1nc(-c2ccc(OC(F)F)c(F)c2)c2c(N)ncnc21` (racemic) [Example 102, (S)/(R)-2-(1-(4-amino-3-(4-(difluoromethoxy)-3-fluorophenyl)-1H-pyrazolo[3,4-d]pyrimidin-1-yl)ethyl)-5-fluoro-3-phenyl-4H-chromen-4-one], the inhibition (usually the share of the control response that was lost under treatment) at 0.1 µM against PI3kγ was 25 to 50%; against PI3kδ it was 0 to 25%. The same compound registered an inhibition at 1 µM against PI3kβ of 50 to 75%. Moreover, on PI3kα, the “% inhibition (PI3kα) 1 uM” value is “C (C=>25 to 50%)”.
Consider `CC(c1oc2cccc(F)c2c(=O)c1-c1cccc(F)c1)n1nc(-c2ccc(N3CCOCC3)c(Cl)c2)c2c(N)ncnc21` (racemic) [Example 126, (S)/(R)-2-(1-(4-amino-3-(3-chloro-4-morpholinophenyl)-1H-pyrazolo[3,4-d]pyrimidin-1-yl)ethyl)-5-fluoro-3-(3-fluorophenyl)-4H-chromen-4-one], for which the “% inhibition (PI3kγ) 100 nM” value on PI3kγ is “D (D=0 to 25%)”. The “% inhibition (PI3kδ) 100 nM” value on PI3kδ was “B (B=>50 to 75%)”. Also, the “% inhibition (PI3kβ) 1 uM” value at PI3kβ is reported as “C (C=>25 to 50%)”. The “% inhibition (PI3kα) 1 uM” value at PI3kα was “D (D=0 to 25%)”.
Turning to `CC(c1oc2cccc(F)c2c(=O)c1-c1ccc(F)cc1)n1nc(-c2ccc(OC(F)F)c(F)c2)c2c(N)ncnc21` (single isomer, unassigned) [Example 97], the inhibition at 0.1 µM on PI3kγ and on PI3kδ was 25 to 50% in each case. The inhibition at 1 µM against PI3kβ and on PI3kα was 25 to 50% each time.
In the case of `CC(C)Oc1ccc(-c2nn(C(C)c3oc4cccc(F)c4c(=O)c3-c3ccccc3)c3ncnc(N)c23)cc1F` (single isomer, unassigned) [Example 101], the IC50 (in general, the concentration at which inhibition is half-maximal) against PI3kγ is 100 to 300 nM. Further, the values for the inhibition at 0.1 µM against PI3kγ and against PI3kδ were 50 to 75% and 0 to 25%, respectively. Moreover, the results for the inhibition at 1 µM on PI3kβ and against PI3kα were 25 to 50% and 50 to 75%, respectively.
For the compound `CC(C)Oc1ccc(-c2nn(C(C)c3oc4cccc(F)c4c(=O)c3-c3cccc(F)c3)c3ncnc(N)c23)cc1F` (single isomer, unassigned; (+)) [Example 7, (+)-2-(1-(4-amino-3-(3-fluoro-4-isopropoxyphenyl)-1H-pyrazolo[3,4-d]pyrimidin-1-yl)ethyl)-5-fluoro-3-(3-fluorophenyl)-4H-chromen-4-one], the IC50 on PI3kγ and against PI3kδ was ≤ 50 nM each time. Further, the inhibition at 1 µM against PI3kβ fell in the range of 50 to 75%. Besides, on PI3kα, the “% inhibition (PI3kα) 1 uM” value was “C (C=>25 to 50%)”.
On to `CC(C)Oc1ccc(-c2nn(C(C)c3oc4cccc(F)c4c(=O)c3-c3cccc(F)c3)c3ncnc(N)c23)cc1F` (single isomer, unassigned; (-)) [Example 8, (−)-2-(1-(4-amino-3-(3-fluoro-4-isopropoxyphenyl)-1H-pyrazolo[3,4-d]pyrimidin-1-yl)ethyl)-5-fluoro-3-(3-fluorophenyl)-4H-chromen-4-one], for which the IC50 is ≤ 50 nM against PI3kγ, ≤ 50 nM at PI3kδ and 300 to 500 nM on PI3kβ. The “% inhibition (PI3kβ) 1 uM” value on PI3kβ is reported as “B (B=>50 to 75%)”. In addition, the “% inhibition (PI3kα) 1 uM” value at PI3kα was “D (D=0 to 25%)”.
On to `Cc1cc(-c2nn(C(C)c3oc4cccc(F)c4c(=O)c3-c3cccc(F)c3)c3ncnc(N)c23)ccc1OC(C)C` (single isomer, unassigned; (-)) [Example 115, (−) 2-(1-(4-amino-3-(4-isopropoxy-3-methylphenyl)-1H-pyrazolo[3,4-d]pyrimidin-1-yl)ethyl)-5-fluoro-3-(3-fluorophenyl)-4H-chromen-4-one], for which the “% inhibition (PI3kγ) 100 nM” value on PI3kγ is given as “C (C=>25 to 50%)”. For the same compound, on PI3kδ (0.1 µM), the “% inhibition (PI3kδ) 100 nM” value was “C (C=>25 to 50%)”. On PI3kβ, the “% inhibition (PI3kβ) 1 uM” value is “D (D=0 to 25%)”. The “% inhibition (PI3kα) 1 uM” value on PI3kα is reported as “C (C=>25 to 50%)”.
For the compound `CC(C)Oc1ccc(-c2nn(Cc3oc4cccc(F)c4c(=O)c3-c3cccc(F)c3)c3ncnc(N)c23)cc1F` [Example 3, 2-((4-amino-3-(3-fluoro-4-isopropoxyphenyl)-1H-pyrazolo[3,4-d]pyrimidin-1-yl)methyl)-5-fluoro-3-(3-fluorophenyl)-4H-chromen-4-one], the IC50 fell in the range of 100 to 300 nM against PI3kγ and 50 to 100 nM against PI3kδ. In addition, the inhibition at 0.3 µM against PI3kγ and on PI3kδ was 50 to 75% throughout. Also, the inhibition at 1 µM fell in the range of 0 to 25% on PI3kβ and 25 to 50% against PI3kα.
Take `CC(C)Oc1ccc(-c2nn(C(C)c3oc4cccc(F)c4c(=O)c3-c3cccc(F)c3)c3ncnc(N)c23)cc1F` (centres unmarked) [Example 6, 2-(1-(4-amino-3-(3-fluoro-4-isopropoxyphenyl)-1H-pyrazolo[3,4-d]pyrimidin-1-yl)ethyl)-5-fluoro-3-(3-fluorophenyl)-4H-chromen-4-one]: the half-inhibitory concentration (IC50) at PI3kγ was 50 to 100 nM; on PI3kδ, ≤ 50 nM; against PI3kα (numeric values), > 10000 nM. In addition, the inhibition at 0.3 µM against PI3kγ and against PI3kδ was 75 to 100% throughout. Further, the inhibition at 1 µM was in the range of 25 to 50% at PI3kβ and 0 to 25% at PI3kα.
As for `Cc1n[nH]c2cc(-c3nn(C(C)c4oc5cccc(F)c5c(=O)c4-c4cccc(F)c4)c4ncnc(N)c34)ccc12` (centres unmarked) [Example 9, 2-(1-(4-amino-3-(3-methyl-1H-indazol-6-yl)-1H-pyrazolo[3,4-d]pyrimidin-1-yl)ethyl)-5-fluoro-3-(3-fluorophenyl)-4H-chromen-4-one], the half-maximal inhibitory concentration (IC50) is 50 to 100 nM on PI3kγ and ≤ 50 nM against PI3kδ. The inhibition at 0.3 µM at PI3kγ and at PI3kδ was 75 to 100% in each case. For the same compound, the inhibition at 1 µM at PI3kβ and against PI3kα was 25 to 50% each time.
Turning to `Cc1n[nH]c2cc(-c3nn([C@@H](C)c4oc5cccc(F)c5c(=O)c4-c4cccc(F)c4)c4ncnc(N)c34)ccc12` [Example 9a, (+)-2-(1-(4-amino-3-(3-methyl-1H-indazol-6-yl)-1H-pyrazolo[3,4-d]pyrimidin-1-yl)ethyl)-5-fluoro-3-(3-fluorophenyl)-4H-chromen-4-one], the IC50 against PI3kγ and against PI3kδ was ≤ 50 nM each time. In addition, the figures for the inhibition at 1 µM on PI3kβ and against PI3kα were 25 to 50% and 0 to 25%, respectively.
Turning to `Cc1n[nH]c2cc(-c3nn([C@H](C)c4oc5cccc(F)c5c(=O)c4-c4cccc(F)c4)c4ncnc(N)c34)ccc12` [Example 9b, (−)-2-(1-(4-amino-3-(3-methyl-1H-indazol-6-yl)-1H-pyrazolo[3,4-d]pyrimidin-1-yl)ethyl)-5-fluoro-3-(3-fluorophenyl)-4H-chromen-4-one], the IC50 against PI3kγ and at PI3kδ was 300 to 500 nM in each case. In addition, the inhibition at 1 µM was in the range of 25 to 50% against PI3kβ and 0 to 25% at PI3kα.
On to `CC(c1oc2cccc(F)c2c(=O)c1-c1cccc(F)c1)n1nc(-c2cn[nH]c2)c2c(N)ncnc21` (centres unmarked) [Example 10, 2-(1-(4-amino-3-(1H-pyrazol-4-yl)-1H-pyrazolo[3,4-d]pyrimidin-1-yl)ethyl)-5-fluoro-3-(3-fluorophenyl)-4H-chromen-4-one], for which, at PI3kγ, the IC50 fell in the range of 100 to 300 nM. The results for the inhibition at 0.3 µM against PI3kγ and at PI3kδ were 75 to 100% and 25 to 50%, respectively. For the same compound, the figures for the inhibition at 1 µM against PI3kβ and against PI3kα were 0 to 25% and 25 to 50%, respectively.
With `CC(c1oc2cccc(F)c2c(=O)c1-c1cccc(F)c1)n1cnc2c(N)ncnc21` (centres unmarked) [Example 11, 2-(1-(6-amino-9H-purin-9-yl)ethyl)-5-fluoro-3-(3-fluorophenyl)-4H-chromen-4-one], the inhibition at 0.3 µM against PI3kγ lay within 25 to 50%; against PI3kδ, 50 to 75%. Also, the inhibition at 1 µM at PI3kβ and on PI3kα was 50 to 75% in each case.
As for `CC(C)Oc1ccc(-c2nn(C(C)c3oc4cccc(F)c4c(=O)c3-c3ccc(F)cc3)c3ncnc(N)c23)cc1F` (centres unmarked) [Example 12, 2-(1-(4-amino-3-(3-fluoro-4-isopropoxyphenyl)-1H-pyrazolo[3,4-d]pyrimidin-1-yl)ethyl)-5-fluoro-3-(4-fluorophenyl)-4H-chromen-4-one], on PI3kγ, the IC50 lay within 100 to 300 nM and the inhibition at 0.3 µM lay within 75 to 100%. This compound also returned an inhibition at 0.3 µM at PI3kδ of 25 to 50%. On PI3kβ, the “% inhibition (PI3kβ) 1 uM” value is recorded as “C (C=>25 to 50%)”. For the same compound, the “% inhibition (PI3kα) 1 uM” value on PI3kα is listed as “D (D=0 to 25%)”.
